Reference: the NIST ThermoML archive (doi:10.1021/je300827f)

Assay: xn = mol fraction of the nth substance listed
Conditions: 101 kPa, Liquid; for viscosity: Capillary tube (Ostwald / Ubbelohde) method; for mass density: Vibrating tube method

OCCOCCO [diethylene glycol] + CCC(C)O
Conditions	mass density, 298.15 K [kg/m3]	mass density, 303.15 K [kg/m3]	mass density, 308.15 K [kg/m3]	mass density, 313.15 K [kg/m3]	viscosity, 298.15 K [mPa·s]	viscosity, 303.15 K [mPa·s]	viscosity, 308.15 K [mPa·s]	viscosity, 313.15 K [mPa·s]
x1 = 0.0808	829.4	824.8	819.9	815.3	3.69	–	–	–
x1 = 0.0833	–	–	–	–	–	3.1	2.65	2.22
x1 = 0.1598	855.3	850.5	845.5	840.7	4.42	–	–	–
x1 = 0.161	–	–	–	–	–	3.69	3.17	2.74
x1 = 0.2398	881.3	876.3	871.2	866.3	5.33	–	–	–
x1 = 0.2402	–	–	–	–	–	4.41	3.77	3.31
x1 = 0.3494	916.4	911.3	906.2	901.2	6.94	–	–	–
x1 = 0.3498	–	–	–	–	–	5.69	4.77	4.25
x1 = 0.4399	944.9	939.8	934.7	929.8	8.61	–	–	–
x1 = 0.441	–	–	–	–	–	7.03	5.79	5.16
x1 = 0.5591	981.9	977.8	971.9	967.1	11.34	–	–	–
x1 = 0.5609	–	–	–	–	–	9.25	7.44	6.62
x1 = 0.6498	–	–	–	–	–	11.31	8.98	7.93
x1 = 0.6501	1009.7	1004.9	1000.1	995.4	13.86	–	–	–
x1 = 0.7398	–	–	–	–	–	13.64	10.74	9.42
x1 = 0.7399	1036.7	1032.3	1027.6	1023.1	16.72	–	–	–
x1 = 0.8499	1069.2	1065.1	1060.9	1056.8	20.75	–	–	–
x1 = 0.8501	–	–	–	–	–	16.88	13.24	11.5
x1 = 0.9399	1095.3	1091.7	1087.9	1084.2	24.46	–	–	–
x1 = 0.9405	–	–	–	–	–	19.8	15.56	13.42
x1 = 1	1112.4	1109.1	1105.6	1102.3	27.15	21.87	17.26	14.81
